Each compound was assayed against T1, MerTK (Homo sapiens, UniProt Q12866) (assay: MerTk degradation in Jurkat cells (Western blot)). Settings: 0.001-1 μM, 4 hour-incubation at 37° C., read-out: Jurkat Max % MerTK Degradation.
T1 construct: endogenous in cells; host or cells: Jurkat cells
T1 sequence (Q12866 21-999): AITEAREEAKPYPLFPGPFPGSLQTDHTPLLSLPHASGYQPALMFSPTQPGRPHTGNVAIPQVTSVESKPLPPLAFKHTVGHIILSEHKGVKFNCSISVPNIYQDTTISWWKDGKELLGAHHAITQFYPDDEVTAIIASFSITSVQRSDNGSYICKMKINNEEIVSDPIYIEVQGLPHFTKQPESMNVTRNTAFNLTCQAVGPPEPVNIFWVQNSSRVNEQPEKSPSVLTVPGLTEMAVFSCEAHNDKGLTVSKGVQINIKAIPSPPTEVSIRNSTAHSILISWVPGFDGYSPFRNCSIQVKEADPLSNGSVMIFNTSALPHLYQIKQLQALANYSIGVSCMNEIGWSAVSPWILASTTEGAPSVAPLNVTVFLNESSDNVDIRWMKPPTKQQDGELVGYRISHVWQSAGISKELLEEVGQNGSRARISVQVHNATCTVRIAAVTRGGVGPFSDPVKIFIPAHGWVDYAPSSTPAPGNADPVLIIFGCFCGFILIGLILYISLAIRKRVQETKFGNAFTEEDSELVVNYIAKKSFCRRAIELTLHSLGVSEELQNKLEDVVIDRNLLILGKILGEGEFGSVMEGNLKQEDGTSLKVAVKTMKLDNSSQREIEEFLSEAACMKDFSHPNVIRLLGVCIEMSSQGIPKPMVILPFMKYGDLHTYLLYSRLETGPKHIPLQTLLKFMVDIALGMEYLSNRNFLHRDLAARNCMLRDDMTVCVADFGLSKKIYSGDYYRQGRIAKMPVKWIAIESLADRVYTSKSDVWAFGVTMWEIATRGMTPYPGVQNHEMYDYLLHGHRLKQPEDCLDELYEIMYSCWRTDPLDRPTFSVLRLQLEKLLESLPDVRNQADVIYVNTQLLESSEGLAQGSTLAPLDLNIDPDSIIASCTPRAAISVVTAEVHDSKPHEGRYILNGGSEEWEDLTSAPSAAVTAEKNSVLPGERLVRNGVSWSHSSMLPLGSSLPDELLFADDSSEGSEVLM
Type: cell-based
Method: Compounds were reconstituted in DMSO to make 10 mM stock solutions. […] Cells were seeded into 6-well plates with about 5×10^6 cells per well. 2 μL of diluted compounds were added to cells to the final concentration of 0.001-1 μM. After a 4 hour-incubation at 37° C., cells were collected into 2 mL Eppendorf tubes and centrifuged at 1,000 rpm for 5 min. The cell pellets were washed with DPBS (1×) once and resuspended in 60 μL RIPA lysis buffer with Halt Protease and Phophatase Inhibitor Cocktail. The cells were lysed on ice for 10 min, then centrifuged at 14,000 rpm for 10 min at 4° C. and the supernatants were collected for western blots.
The protein concentration of cell lysates was quantified with Pierce™ BCA Protein Assay Kit. […] BCA working reagents were prepared by mixing BCA reagent A with reagent B in 50: 1 ratio. 200 μL of the BCA working reagents were added to 25 μL of BCA standard or cell lysates in microplate, and mixed thoroughly on a plate shaker for 30 seconds. After incubation at 37° C. for 30 min, the absorbance of samples at 562 nm were measured with EnVision Plate Reader.
Protein lysates were prepared in NuPAGE™ LDS sample buffer and NuPAGE™ sample reducing agent, and incubated at 95° C. for 5 min. […] The proteins were transferred to low fluorescence PVDF membranes using the Trans-Blot Turbo Transfer System. Membranes were then blocked in Odyssey blocking buffer at RT for 1 h followed by primary incubation at 4° C. overnight. The primary antibodies were MerTK rabbit monoclonal antibody and actin mouse monoclonal antibody. Membranes were washed three times with TBST (1×), and then incubated with IR Dye 800 CW Goat anti-rabbit and IR Dye 700 CW Goat anti-mouse secondary antibodies in 1:10,000 dilution at RT for 1 h. The Western blot images were obtained using Odyssey Imaging System.

Row | Compound | Dmax
1 | CCCCNc1ncc2c(-c3ccc(CN4CCN(CCCC(=O)NCCCOCCCOCCCc5cccc6c5n(C)c(=O)n6C5CCC(=O)NC5=O)CC4)cc3)cn([C@H]3CC[C@H](O)CC3)c2n1 (stereo partly drawn) [I-8, Trans-4-[4-([4-[2-(butylamino)-7-[4-hydroxycyclohexyl]-7H-pyrrolo[2,3-d]pyrimidin-5-yl]phenyl]methyl)piperazin-1-yl]-N-[3-(3-[3-[1-(2,6-dioxopiperidin-3-yl)-3-methyl-2-oxo-2,3-dihydro-1H-1,3-benzodiazol-4-yl]propoxy]propoxy)propyl]butanamide formic acid] | > 50%

Same assay, conditions: Jurkat, 4 h, 0.001-1 μM, 4 hour-incubation at 37° C., read-out: Jurkat Max % MerTK Degradation

Row | Compound | Dmax
2 | CCCCNc1ncc2c(-c3ccc(S(=O)(=O)N4CCN(CCOCCOCCOCCOCCNc5cccc6c5n(C)c(=O)n6C5CCC(=O)NC5=O)CC4)cc3)cn([C@H]3CC[C@H](O)CC3)c2n1 (relative stereo) [I-35, Trans-3-[4-[15-(4-[4-[2-(butylamino)-7-[-4-hydroxycyclohexyl]-7H-pyrrolo[2,3-d]pyrimidin-5-yl]benzenesulfonyl]piperazin-1-yl)-4,7,10,13-tetraoxa-1-azapentadecan-1-yl]-3-methyl-2-oxo-2,3-dihydro-1H-1,3-benzodiazol-1-yl]piperidine-2,6-dione] | > 50%
3 | COC[C@H](C)Nc1ncc2c(-c3ccc(CN4CCN(CCOCCOCCOCCOCCNc5cccc6c5n(C)c(=O)n6C5CCC(=O)NC5=O)CC4)cc3)cn([C@H]3CC[C@H](O)CC3)c2n1 (stereo partly drawn) [I-4, Trans-3-[4-[15-(4-[[4-(2-[[(2S)-1-methoxypropan-2-yl]amino]-7-[4-hydroxycyclohexyl]-7H-pyrrolo[2,3-d]pyrimidin-5-yl)phenyl]methyl]piperazin-1-yl)-4,7,10,13-tetraoxa-1-azapentadecan-1-yl]-3-methyl-2-oxo-2,3-dihydro-1H-1,3-benzodiazol-1-yl]piperidine-2,6-dione bis(formic acid)] | > 50%
4 | COC[C@@H](C)Nc1ncc2c(-c3ccc(CN4CCN(CCOCCOCCOCCOCCNc5cccc6c5n(C)c(=O)n6C5CCC(=O)NC5=O)CC4)cc3)cn([C@H]3CC[C@H](O)CC3)c2n1 (stereo partly drawn) [I-5, Trans-3-[4-[15-(4-[[4-(2-[[(2R)-1-methoxypropan-2-yl]amino]-7-[4-hydroxycyclohexyl]-7H-pyrrolo[2,3-d]pyrimidin-5-yl)phenyl]methyl]piperazin-1-yl)-4,7,10,13-tetraoxa-1-azapentadecan-1-yl]-3-methyl-2-oxo-2,3-dihydro-1H-1,3-benzodiazol-1-yl]piperidine-2,6-dione bis(formic acid)] | < 20%
5 | COC[C@H](C)Nc1ncc2c(-c3ccc(CN4CCN(CCOCCOCCOCCOCCNc5cccc6c5C(=O)N(C5CCC(=O)NC5=O)C6=O)CC4)cc3)cn([C@H]3CC[C@H](O)CC3)c2n1 (stereo partly drawn) [I-11, Trans-2-(2,6-dioxopiperidin-3-yl)-4-[15-(4-[[4-(2-[[(2S)-1-methoxypropan-2-yl]amino]-7-[4-hydroxycyclohexyl]-7H-pyrrolo[2,3-d]pyrimidin-5-yl)phenyl]methyl]piperazin-1-yl)-4,7,10,13-tetraoxa-1-azapentadecan-1-yl]-2,3-dihydro-1H-isoindole-1,3-dione] | > 50%
6 | CCCCNc1ncc(-c2ccc(CN3CCN(C(=O)COCCOCCOCCOCCNc4cccc5c4C(=O)N(C4CCC(=O)NC4=O)C5=O)CC3)cn2)c(N[C@H]2CC[C@H](O)CC2)n1 (stereo partly drawn) [I-22, 4-[15-[4-([6-[2-(Butylamino)-4-[[trans-4-hydroxycyclohexyl]amino]pyrimidin-5-yl]pyridin-3-yl]methyl)piperazin-1-yl]-15-oxo-4,7,10,13-tetraoxa-1-azapentadecan-1-yl]-2-(2,6-dioxopiperidin-3-yl)-2,3-dihydro-1H-isoindole-1,3-dione] | > 50%
7 | CCCCNc1ncc2c(-c3ccc(CN4CCN(CCOCCOCCOCCOCCNc5cccc6c5n(C)c(=O)n6C5CCC(=O)NC5=O)CC4)cc3)cn([C@H]3CC[C@H](O)CC3)c2n1 (stereo partly drawn) [I-36, trans-3-(4-[15-[4-([4-[2-(butylamino)-7-[4-hydroxycyclohexyl]-7H-pyrrolo[2,3-d]pyrimidin-5-yl]phenyl]methyl)piperazin-1-yl]-4,7,10,13-tetraoxa-1-azapentadecan-1-yl]-3-methyl-2-oxo-2,3-dihydro-1H-1,3-benzodiazol-1-yl)piperidine-2,6-dione] | > 50%

Other lines, results leading:

Row | Dmax | Compound
8 | < 20% | COCC(C)Nc1ncc2c(-c3ccc(CN4CCN(CCCCCNCCN[C@H](C(=O)N5C[C@H](O)C[C@H]5C(=O)NCc5ccc(-c6scnc6C)cc5)C(C)(C)C)CC4)cc3)cn([C@H]3CC[C@H](O)CC3)c2n1 (stereo partly drawn) [I-3, (2S,4R)-4-Hydroxy-1-[(2S)-2-([2-[(5-[4-[(4-[2-[(1-methoxypropan-2-yl)amino]-7-(trans-4-hydroxycyclohexyl)-7H-pyrrolo[2,3-d]pyrimidin-5-yl]phenyl)methyl]piperazin-1-yl]pentyl)amino]ethyl]amino)-3,3-dimethylbutanoyl]-N-[[4-(4-methyl-1,3-thiazol-5-yl)phenyl]methyl]pyrrolidine-2-carboxamide]
9 | 20 to 50% | CCCCNc1ncc2c(-c3ccc(S(=O)(=O)N4CCN(C(=O)COCCOCCOCCOCC(=O)N[C@H](C(=O)N5C[C@H](O)C[C@H]5C(=O)NCc5ccc(-c6scnc6C)cc5)C(C)(C)C)CC4)cc3)nn([C@H]3CC[C@H](O)CC3)c2n1 [I-31, (2S,4R)-1-((S)-2-(tert-butyl)-17-(4-((4-(6-(butylamino)-1-(trans-4-hydroxycyclohexyl)-1H-pyrazolo[3,4-d]pyrimidin-3-yl)phenyl)sulfonyl)piperazin-1-yl)-4,17-dioxo-6,9,12,15-tetraoxa-3-azaheptadecanoyl)-4-hydroxy-N-(4-(4-methylthiazol-5-yl)benzyl)pyrrolidine-2-carboxamide]
10 | > 50% | CCCCNc1ncc2c(-c3ccc(S(=O)(=O)N4CCN(C(=O)COCCOCCOCCOCCNc5cccc6c5C(=O)N(C5CCC(=O)NC5=O)C6=O)CC4)cc3)nn([C@H]3CC[C@H](O)CC3)c2n1 (stereo partly drawn) [I-32, 4-((14-(4-((4-(6-(butylamino)-1-(trans-4-hydroxycyclohexyl)-1H-pyrazolo[3,4-d]pyrimidin-3-yl)phenyl)sulfonyl)piperazin-1-yl)-14-oxo-3,6,9,12-tetraoxatetradecyl)amino)-2-(2,6-dioxopiperidin-3-yl)isoindoline-1,3-dione]
11 | > 50% | CCCCNc1ncc2c(-c3ccc(S(=O)(=O)N4CCN(CCOCCOCCOCCOCC(=O)N[C@H](C(=O)N5C[C@H](O)C[C@H]5C(=O)NCc5ccc(-c6scnc6C)cc5)C(C)(C)C)CC4)cc3)nn([C@H]3CC[C@H](O)CC3)c2n1 [I-33, (2S,4R)-1-((S)-2-(tert-butyl)-17-(4-((4-(6-(butylamino)-1-(trans-4-hydroxycyclohexyl)-1H-pyrazolo[3,4-d]pyrimidin-3-yl)phenyl)sulfonyl)piperazin-1-yl)-4-oxo-6,9,12,15-tetraoxa-3-azaheptadecanoyl)-4-hydroxy-N-(4-(4-methylthiazol-5-yl)benzyl)pyrrolidine-2-carboxamide]
12 | > 50% | CCCCNc1ncc2c(-c3ccc(S(=O)(=O)N4CCN(CCOCCOCCOCCOCCNc5cccc6c5C(=O)N(C5CCC(=O)NC5=O)C6=O)CC4)cc3)nn([C@H]3CC[C@H](O)CC3)c2n1 (stereo partly drawn) [I-34, 4-((14-(4-((4-(6-(butylamino)-1-(trans-4-hydroxycyclohexyl)-1H-pyrazolo[3,4-d]pyrimidin-3-yl)phenyl)sulfonyl)piperazin-1-yl)-3,6,9,12-tetraoxatetradecyl)amino)-2-(2,6-dioxopiperidin-3-yl)isoindoline-1,3-dione]
